Results on twelve molecules are retold here after ChEMBL document CHEMBL4152325, “Tacripyrimidines, the first tacrine-dihydropyrimidine hybrids, as multi-target-directed ligands for Alzheimer's disease” (Eur J Med Chem, 2018).

Series [1] addresses T1, Acetylcholinesterase (Homo sapiens, UniProt P22303). Briefly: Inhibition of recombinant human AChE expressed in HEK293 cells using acetylthiocholine as substrate pretreated for 20 mins followed by substrate addition by Ellman's method. The class given is cell-based. On the technique in general: Ellman's reagent forms a yellow product with free thiols.
Another series concerns the target Cholinesterase (Homo sapiens, UniProt P06276). Briefly: Inhibition of recombinant human serum BChE using butyrylthiocholine as substrate pretreated for 20 mins followed by substrate addition by Ellman's method.
The nature of series [2]: in vitro. The following applies: human, HepG2 cells.
Description: Cytotoxicity against human HepG2 cells assessed as cell viability at 300 uM after 24 hrs by CellTiter-Glo luminescence assay relative to control
Series [3] is described as follows: in vitro. The settings on record: human, HepG2 cells. This is another data set of the same source.
Description: Cytotoxicity against human HepG2 cells assessed as cell viability at 10 uM after 24 hrs by CellTiter-Glo luminescence assay relative to control
The nature of series [4]: in vitro. The settings on record: human, HepG2 cells. This is another data set of the same source.
Description: Cytotoxicity against human HepG2 cells assessed as cell viability at 100 uM after 24 hrs by CellTiter-Glo luminescence assay relative to control
Series [5] concerns the target T1, Acetylcholinesterase. Briefly: Non-competitive inhibition of recombinant human AChE expressed in HEK293 cells using varying levels of acetylthiocholine as substrate by Lineweaver-burk double reciprocal plot analysis. The class given is cell-based.
For series [6], the target named is T1, Acetylcholinesterase. Briefly: Non-competitive inhibition of recombinant human AChE expressed in HEK293 cells assessed as enzyme-substrate-inhibitor complex using varying levels of acetylthiocholine as substrate by Dixon plot analysis.
The target in series [7] is Amyloid-beta precursor protein (Homo sapiens) (UniProt P05067). Briefly: Inhibition of HFIP-pretreated amyloid beta (1 to 42 residues) (unknown origin) self aggregation at 50 uM after 24 hrs by ThT-based fluorometric method relative to control.
In series [8] the target is T1, Acetylcholinesterase. Nature of the series: Potency index, ratio of tacrine IC50 to test compound IC50 for recombinant human AChE expressed in HEK293 cells. The format is cell-based.

The source made the active and inactive calls. The rule behind the calls is not given here.

Sequence of Amyloid-beta precursor protein (Homo sapiens) (P05067 whole entry, the tested form may be a part): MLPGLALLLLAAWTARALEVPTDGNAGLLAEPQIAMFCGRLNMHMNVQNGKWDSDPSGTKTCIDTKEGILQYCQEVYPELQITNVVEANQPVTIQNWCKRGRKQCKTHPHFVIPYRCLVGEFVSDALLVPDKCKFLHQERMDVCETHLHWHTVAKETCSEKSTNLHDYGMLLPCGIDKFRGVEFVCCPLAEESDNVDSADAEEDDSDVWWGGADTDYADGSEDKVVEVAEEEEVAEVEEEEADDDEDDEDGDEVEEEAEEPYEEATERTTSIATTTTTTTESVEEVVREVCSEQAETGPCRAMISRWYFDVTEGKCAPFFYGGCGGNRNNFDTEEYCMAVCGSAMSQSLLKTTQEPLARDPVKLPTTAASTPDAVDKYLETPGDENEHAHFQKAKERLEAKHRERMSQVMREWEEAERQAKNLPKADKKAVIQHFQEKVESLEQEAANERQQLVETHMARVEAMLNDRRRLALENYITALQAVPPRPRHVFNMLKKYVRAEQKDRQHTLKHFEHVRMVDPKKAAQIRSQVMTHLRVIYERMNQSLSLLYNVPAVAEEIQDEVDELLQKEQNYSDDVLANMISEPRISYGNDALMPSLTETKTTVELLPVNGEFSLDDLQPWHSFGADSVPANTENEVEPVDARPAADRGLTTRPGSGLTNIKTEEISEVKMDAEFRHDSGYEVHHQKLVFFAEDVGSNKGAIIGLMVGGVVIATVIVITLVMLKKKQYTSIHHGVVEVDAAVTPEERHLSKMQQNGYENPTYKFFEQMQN
Sequence of Cholinesterase (P06276 whole entry): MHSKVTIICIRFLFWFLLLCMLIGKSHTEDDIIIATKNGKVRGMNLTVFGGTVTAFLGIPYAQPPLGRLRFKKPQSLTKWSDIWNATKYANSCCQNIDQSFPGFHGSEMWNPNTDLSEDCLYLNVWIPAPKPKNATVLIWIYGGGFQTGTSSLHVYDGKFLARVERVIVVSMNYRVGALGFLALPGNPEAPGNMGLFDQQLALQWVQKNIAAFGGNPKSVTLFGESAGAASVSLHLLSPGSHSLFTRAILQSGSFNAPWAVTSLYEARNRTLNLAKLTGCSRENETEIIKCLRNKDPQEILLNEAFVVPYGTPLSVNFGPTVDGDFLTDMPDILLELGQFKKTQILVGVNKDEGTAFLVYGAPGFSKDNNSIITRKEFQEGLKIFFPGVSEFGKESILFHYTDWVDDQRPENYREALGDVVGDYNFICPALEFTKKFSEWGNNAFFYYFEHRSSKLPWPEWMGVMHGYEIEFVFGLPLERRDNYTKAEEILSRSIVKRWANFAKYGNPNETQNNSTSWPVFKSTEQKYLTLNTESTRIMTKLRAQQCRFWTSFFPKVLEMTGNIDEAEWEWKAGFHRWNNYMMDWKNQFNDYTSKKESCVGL
T1 sequence (P22303 whole entry): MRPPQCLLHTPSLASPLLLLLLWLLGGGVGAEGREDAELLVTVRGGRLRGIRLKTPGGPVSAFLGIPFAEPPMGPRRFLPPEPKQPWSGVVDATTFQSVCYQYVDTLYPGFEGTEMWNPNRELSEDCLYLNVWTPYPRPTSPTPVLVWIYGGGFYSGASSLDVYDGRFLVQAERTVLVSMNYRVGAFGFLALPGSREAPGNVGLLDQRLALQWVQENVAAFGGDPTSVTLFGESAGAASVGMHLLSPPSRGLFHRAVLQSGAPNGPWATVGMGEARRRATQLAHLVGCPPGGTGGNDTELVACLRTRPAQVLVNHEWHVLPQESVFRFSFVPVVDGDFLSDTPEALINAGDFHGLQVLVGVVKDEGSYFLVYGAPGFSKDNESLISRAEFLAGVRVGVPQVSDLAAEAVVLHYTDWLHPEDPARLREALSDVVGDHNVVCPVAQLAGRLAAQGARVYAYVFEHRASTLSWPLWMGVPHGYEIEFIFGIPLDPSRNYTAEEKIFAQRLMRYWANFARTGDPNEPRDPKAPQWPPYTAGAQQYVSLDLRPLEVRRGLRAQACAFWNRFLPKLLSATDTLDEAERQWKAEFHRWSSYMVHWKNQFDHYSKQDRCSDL

A word on the IC50: it is the concentration at which inhibition is half-maximal. For orientation: viability means a read-out of living cells in per cent, often relative to untreated cells. For the molecule `Nc1c2c(nc3c1C(c1ccccc1)NC(=S)N3)CCCC2` (stereo not drawn), the IC50 on Acetylcholinesterase [1] came to 10.8 µM; at Cholinesterase it was 5.68 µM. Moreover, in “in vitro [2]”, the viability at 24 h, 300 µM turned out to be 68.2%. Besides, the viability at 24 h, 10 µM in “in vitro [3]” came out at 105%. The viability at 24 h, 100 µM in “in vitro [4]” was determined as 97.2%.

A word on the inhibition: it is the percentage by which the read-out fell short of the control. What is called Ki is a measure of affinity in units of concentration, obtained from inhibition or displacement. Turning to `COc1cccc(C2NC(=S)Nc3nc4c(c(N)c32)CCCC4)c1` (stereo not drawn), the IC50 at Acetylcholinesterase [1] came to 3.05 µM; on Cholinesterase, 3.19 µM. The inhibition entry at Acetylcholinesterase [5] is “Active”. In addition, the Ki on Acetylcholinesterase [6] is 3.88 µM. Moreover, the inhibition in series [7] amounted to 10%. Also, the viability at 24 h, 300 µM in the series “in vitro [2]” was 97.5%. For the same molecule, the viability at 24 h, 10 µM in the series “in vitro [3]” was 100%. The viability at 24 h, 100 µM in the series “in vitro [4]” is 102%.

Take `Cc1ccc(C2NC(=S)Nc3nc4c(c(N)c32)CCCC4)cc1` (stereo not drawn): the IC50 amounted to 23.8 µM at Acetylcholinesterase [1] and 3.47 µM at Cholinesterase. In “in vitro [2]”, the viability at 24 h, 300 µM came out at 45.2%. For the same molecule, the viability at 24 h, 10 µM in “in vitro [3]” was found to be 90.6%. The viability at 24 h, 100 µM in the series “in vitro [4]” was 62%.

For `Cc1cccc(C2NC(=S)Nc3nc4c(c(N)c32)CCCC4)c1` (stereo not drawn), the IC50 at Acetylcholinesterase [1] is 10.1 µM; on Cholinesterase, 2.65 µM. Besides, the viability at 24 h, 300 µM in the series “in vitro [2]” was 68.1%. For the same molecule, in the series “in vitro [3]”, the viability at 24 h, 10 µM is 97.6%. Besides, in “in vitro [4]”, the viability at 24 h, 100 µM is 82.5%.

On to `Nc1c2c(nc3c1C(c1cccc(Br)c1)NC(=S)N3)CCCC2` (stereo not drawn), for which the IC50 on Acetylcholinesterase [1] came out at 0.0373 µM; on Cholinesterase it was 1.27 µM. The inhibition result on Acetylcholinesterase [5] was “Active”. Also, the Ki at Acetylcholinesterase [6] worked out at 0.147 µM. The inhibition in [7] was 10%. The Ratio IC50 on Acetylcholinesterase [8] lay within 9.4 to 10. In the series “in vitro [2]”, the viability at 24 h, 300 µM is 62.3%. For the same molecule, the viability at 24 h, 10 µM in “in vitro [3]” was determined as 103%. Further, the viability at 24 h, 100 µM in the series “in vitro [4]” was found to be 76.8%.

Regarding `COc1ccccc1C1NC(=S)Nc2nc3c(c(N)c21)CCCC3` (stereo not drawn), the IC50 on Acetylcholinesterase [1] was 31.2 µM; at Cholinesterase, 11.7 µM. The viability at 24 h, 300 µM in the series “in vitro [2]” was 68.1%. The viability at 24 h, 10 µM in “in vitro [3]” turned out to be 98.1%. Besides, the viability at 24 h, 100 µM in the series “in vitro [4]” was 81.1%.

With `CN(C)c1ccc(C2NC(=S)Nc3nc4c(c(N)c32)CCCC4)cc1` (stereo not drawn), the results for the IC50 at Acetylcholinesterase [1] and at Cholinesterase were 24.1 µM and 154 µM, respectively. Also, the viability at 24 h, 300 µM in the series “in vitro [2]” amounted to 78.9%. For the same molecule, in the series “in vitro [3]”, the viability at 24 h, 10 µM came out at 87.3%. Also, in the series “in vitro [4]”, the viability at 24 h, 100 µM was found to be 82.5%.

As for `Nc1c2c(nc3c1C(c1cccc([N+](=O)[O-])c1)NC(=S)N3)CCCC2` (stereo not drawn), the IC50 at Acetylcholinesterase [1] stood at 29.8 µM; on Cholinesterase it was 2.68 µM. For the same molecule, the viability at 24 h, 300 µM in “in vitro [2]” amounted to 82.7%. For the same molecule, in the series “in vitro [3]”, the viability at 24 h, 10 µM came out at 102%. The viability at 24 h, 100 µM in the series “in vitro [4]” worked out at 96.5%.

With `COc1ccc(C2NC(=S)Nc3nc4c(c(N)c32)CCCC4)cc1` (stereo not drawn), the values for the IC50 at Acetylcholinesterase [1] and at Cholinesterase were 7.64 µM and 1.75 µM, respectively. Further, the viability at 24 h, 300 µM in “in vitro [2]” was determined as 77.6%. Besides, the viability at 24 h, 10 µM in “in vitro [3]” worked out at 97.9%. For the same molecule, the viability at 24 h, 100 µM in “in vitro [4]” amounted to 100%.

Take `Nc1c2c(nc3c1C(c1ccc(Cl)cc1)NC(=S)N3)CCCC2` (stereo not drawn): the IC50 on Acetylcholinesterase [1] was 5.28 µM; on Cholinesterase, 0.372 µM. Further, the inhibition in [7] turned out to be 10%. Also, the viability at 24 h, 300 µM in the series “in vitro [2]” worked out at 9%. The viability at 24 h, 10 µM in the series “in vitro [3]” was 80%. In addition, the viability at 24 h, 100 µM in “in vitro [4]” stood at 27.9%.

For `Nc1c2c(nc3c1C(c1ccc4c(c1)OCO4)NC(=S)N3)CCCC2` (stereo not drawn), the figures for the IC50 at Acetylcholinesterase [1] and at Cholinesterase were 8.18 µM and 37.5 µM, respectively. In addition, in the series “in vitro [2]”, the viability at 24 h, 300 µM amounted to 64.1%. Further, the viability at 24 h, 10 µM in “in vitro [3]” stood at 103%. In the series “in vitro [4]”, the viability at 24 h, 100 µM is 91.2%.

`Nc1c2c(nc3c1C(c1ccc(F)cc1)NC(=S)N3)CCCC2` (stereo not drawn): the figures for the IC50 on Acetylcholinesterase [1] and on Cholinesterase were 31 µM and 10 µM, respectively. Further, in “in vitro [2]”, the viability at 24 h, 300 µM was 72.5%. Besides, in “in vitro [3]”, the viability at 24 h, 10 µM came out at 104%. In the series “in vitro [4]”, the viability at 24 h, 100 µM worked out at 79.1%.
